Test results as given in patent US20160160264A1, “DIAGNOSTIC IN VITRO METHOD” (UNIVERSITÄT ZU KÖLN, priority 2013, published 2016).

Target: T1, recombinantly expressed and purified TPMT (Homo sapiens, UniProt P51580)
T1 construct: made in house
T1 sequence (P51580 1-245): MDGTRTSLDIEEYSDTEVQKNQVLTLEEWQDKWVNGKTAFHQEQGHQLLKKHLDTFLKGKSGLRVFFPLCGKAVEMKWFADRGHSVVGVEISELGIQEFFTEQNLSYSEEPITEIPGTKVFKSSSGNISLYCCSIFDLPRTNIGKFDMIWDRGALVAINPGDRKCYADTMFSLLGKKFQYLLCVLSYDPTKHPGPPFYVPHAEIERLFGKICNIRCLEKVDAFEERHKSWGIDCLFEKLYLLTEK
Assay: Steady state kinetics with purified TPMT (substrate methylation, HPLC analysis)
Assay type: biochemical
Conditions: compound as substrate of 3 ng/μL purified TPMT; Moco: urothione synthesis in presence of alkaline phosphatase; 6-mercaptopurine: 6-methylmercaptopurine synthesis
Procedure: (A) Kinetics of the urothione synthesis by TPMT in the presence of alkaline phosphatase. (B) Kinetics of the 6-methylmercaptopurine synthesis by TPMT. (C) Kinetic parameters of the kinetics shown in A and B.
The in vitro synthesis of urothione in kidney protein extracts is dependent on S-adenosylmethionine and Moco. […] Quantities used: 1.7 μg/μl kidney extract, 5 μM Moco, 500 μM SAM, 250 μM DTT in 0.1 M Tris/HCl pH7.5. The reaction was incubated for 4 h at 37° C. and then heat-denatured for 1 h at 60° for stopping and purified by means of QAE-Sepharose. The eluate was dried up and taken up in the HPLC solvent. HPLC analysis took place on a C4 Reprosil® 100 HPLC column, 150×2 mm, 5 μm particle size (Dr. Maisch GmbH) with 20 mM acetic acid and 15% methanol by isocratic elution. […] The increase of the peak at 24 min elution time indicates the formation of urothione. The increase of the peak at 31 min elution time indicates the formation of jukathione. Quantities used: 20 ng/μl TPMT, 2-16 μM Moco, 500 μM SAM, 250 μM DTT in 0.1 M Tris/HCl pH7.5. The reaction was incubated for 1 h at 37° C. and then heat-denatured for 1 h at 60° for stopping. The eluate was dried up and taken up in the HPLC solvent. HPLC analysis took place on a YMC C18 Hydrosphere@ column, 250×4 mm, 5 μm particle size with 20 mM formic acid by elution in a methanol gradient (0-25% 20 min, 1 mL/min). […] The in vitro transformation of Moco by means of liver extracts into urothione in the presence and absence of the TPMT inhibitor 3,4,5-triiodo benzoic acid is shown in FIG. 4. […] The in vitro transformation of Moco by purified TPMT into jukathione in the presence and absence of the TPMT inhibitor 3,4,5-triiodo benzoic acid is shown in FIG. 5. An HPLC chromatogram is shown of the analysis of jukathione after the incubation of purified 1 ng/μL TPMT with 500 μM SAM, 250 μM DTT and 10 μM Moco in the presence and absence of 2.5 μM 3,4,5-triiodo benzoic acid (inhibitor). […] What is depicted is the in vitro synthesis of urothione in protein extracts from RBCs from individuals with a normal TPMT activity (wild type) and persons with heterozygous mutations in the TPMT gene locus (heterozygous), and one person with a homozygous mutation (homozygous) in the TPMT gene locus. […] What is shown is the determination of the urothione content in individuals with a normal TPMT activity (wild type) and persons with heterozygous mutations in the TPMT gene locus (heterozygous), and two persons with homozygous mutations (homozygous) in the TPMT gene locus.
Urothione detection: 10 μM Moco (isolated from heat-denaturated human sulfite oxidase) are incubated in 50 mM Tris/HCl, pH 7.2, 1 mM SAM, 250 μM dithiothreitol and 1.7 μg/μL liver protein extract or 3.4 μg/μL RBCs for 4 h at 37° C. […]

Structure (SMILES)	KM [µM]	kcat [s⁻¹]
Sc1ncnc2nc[nH]c12 [6-mercaptopurine]	69	0.047
Nc1nc2c(c(=O)[nH]1)NC1C3=C([S][Mo](=[O])(=[O])([O-])[S]3)C(COP(=O)([O-])O)OC1N2 (stereo not shown) [Moco]	2	0.129
